This is an account of results in patent US20140011755A1, “Cardiac Glycosides for Treating Autoimmune Disease” (Department of Veterans Affairs, priority 2010, published 2014).

One data set has as its system erectile dysfunction. The following applies: 20 mg sublingual; cited from earlier work.
The test system of another data set is TNFR. The format is cell-based, mice. The following applies: pre-treatment with 3.3 or 33 nM. Here is the method: (§1) Activity was monitored by ^3H-thymidine incorporation as a read-out for proliferation. […] Cell type(s) in the splenocyte population responsive to therapeutic concentrations of cardiac glycoside were determined by identifying the population of cells that responded to a dose-dependent decrease in activity in the presence of stimulant, defined as ligand(s) binding to cognate receptor(s). Activity was analyzed by: ^3H-thymidine or BrdU incorporation to monitor proliferation or by ELISA to monitor cytokine production. Splenic T lymphocytes were isolated by negative selection (MACS, Miltinyi Biotec) and are stimulated with PMA, ConA or through the TCR with anti-CD3/anti-CD28 Dynabeads (Invitrogen) and collagen II (all non-TNFR receptors/pathways). […] Peritoneal and bone marrow-derived macrophages were isolated from CIA mice in the presence of M-CSF growth factor and were stimulated with TNF and CD40 ligand (CD40L). […] Splenic B lymphocytes were isolated by negative selection (MACS, Miltinyi Biotec) and were stimulated with BAFF (BLyS), CD40L or through the BCR with anti-IgM u-chain specific antibodies.

For another data set, the target named is T1, CD40 (Mus musculus, UniProt P27512).
T1 construct: Peritoneal and bone marrow-derived macrophages were isolated from CIA mice; endogenous in cells; host or cells: peritoneal and bone marrow-derived macrophages from CIA mice
T1 sequence (P27512 20-289): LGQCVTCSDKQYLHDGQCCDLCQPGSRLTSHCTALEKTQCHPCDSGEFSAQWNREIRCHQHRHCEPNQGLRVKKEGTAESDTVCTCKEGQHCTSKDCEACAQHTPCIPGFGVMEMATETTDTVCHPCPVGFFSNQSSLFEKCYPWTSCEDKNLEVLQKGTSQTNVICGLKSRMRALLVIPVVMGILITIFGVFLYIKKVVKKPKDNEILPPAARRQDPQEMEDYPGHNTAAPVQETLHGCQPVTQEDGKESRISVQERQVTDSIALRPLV
The format is cell-based, mice. The following applies: pre-treatment with 3.3 or 33 nM. Here is the method:
as §1

The next data set relates to TNF, IL-6 and IL-1beta. Put plainly: Serum cytokine ELISA in CIA treatment groups. The class given is in vivo. The following applies: serum from 3 mice per treatment group, ELISA in triplicate. From the text:
FIG. 9. Serum cytokine levels are similar between vehicle and cardiac glycoside treatment groups. […] The unpaired student t-test was used to assess significance.

The conditions of data set [1]: injectable versus other formulations; cited from earlier work.
For data set [2], the system named is collagen-induced arthritis (CIA) joints. The class given is in vivo, DBA1/J mice. As to conditions: cross-sectioned ankle joints, CIA prevention groups. Here is the method: FIG. 7. Cardiac glycosides reduce joint pathology in the CIA mouse model for rheumatoid arthritis. Blinded scoring was performed on histologic sections of joints harvested from mice at the end of a CIA prevention study (A-C). Joints derived from three representative mice belonging to each prevention group (A-C) were decalcified, fixed and stained with tolidine blue, followed by scoring by an examiner blinded to treatment status for the severity of synovitis (inflammation), pannus (growth of the synovial lining), and erosions of bone. (D-G) Joints derived from three representative mice belonging to each prevention group were decalcified, fixed, and stained with hematoxylin and eosin. Cross-sectioned ankle joints from vehicle (D), digitoxin (E), ouabain (F) and proscillaridin (G) treated mice are presented. Error bars represent SEM, and asterisks indicate P-values less than 0.05 by Mann-Whitney test.
In treatment studies, mice were randomly enrolled in treatment groups and treatment commenced when the average clinical score was at or above 2. […] Daily dosing commenced upon enrollment at the abovementioned concentrations. […] Double-blinded histopathology scoring was conducted of cross-sectioned joints taken from cardiac glycoside and vehicle recipients. […] The results obtained from these animal studies indicate that cardiac glycosides are effective at reducing the clinical manifestations of disease and reducing joint pathology in mice with collagen arthritis.
The effects of the different cardiac glycoside treatments on CIA pathology was analyzed by histological scoring. Inflammatory cell infiltrate, synovial hyperplasia, pannus formation and articular cartilage and bone deterioration were evaluated in sectioned paws of treated mice at specific time-points throughout the disease course. […] The ELISA was developed and read using BD ELISA development kit. […]

Data set [3] has as its system collagen-induced arthritis (CIA). The format is in vivo, DBA1/J mice.
The subject of data set [4] is anti-type II collagen antibodies. The format is in vivo. The following applies: sera of 6 mice per prevention group, ANOVA. Here is the method: FIG. 10. Cardiac glycosides reduce immunoglobulin levels in CIA mice. ELISAs for anti-type II collagen antibodies were performed on sera derived from 6 representative mice of each prevention group (A, B). Isotype specific antibodies for IgG1 and IgG2a (A) and IgM (B) were utilized. […] Statistical analysis was performed using ANOVA and asterisks indicate points at which the P-values were less than 0.001.
The effects of the different cardiac glycoside treatments on CIA pathology was analyzed by histological scoring. Inflammatory cell infiltrate, synovial hyperplasia, pannus formation and articular cartilage and bone deterioration were evaluated in sectioned paws of treated mice at specific time-points throughout the disease course. Histopathology scores of inflammation, pannus formation and bone and cartilage erosions were conducted by a blinded investigator on toludine blue-stained cross sections of fixed leg joints from representative mice in vehicle and glycoside groups. Pathology scoring for each of the three categories are on a scale of 0-4 with grade 0=normal, 1=mild inflammation, hyperplasia of the synovial lining, cartilage destruction without bone erosion, grades 2 to 4=increasing degrees of inflammatory cell infiltrate, synovial hyperplasia, pannus formation and cartilage and bone destruction. Error bars represent SEM and statistics were performed using the Mann-Whitney test. At the endpoint, mice are bled and serum is collected from representative mice and stored at −80 C until use. To determine anti-collagen II antibody levels and to characterize isotype prevalence, bovine collagen II (Chondrex) was coated O/N at 4 C on an ELISA plate, washed and incubated with 100 uL of 1:10 dilution of each serum sample (in triplicate) for 2 h at RT. Wells were washed and incubated with anti-mouse IgM u-chain specific (Jackson), anti-mouse IgG1, or anti-mouse IgG2a (Southern Biotech) for 1 h at RT. The ELISA was developed and read using BD ELISA development kit. Statistical analysis was performed using the two-tailed ANOVA and asterisks represent P-values less than 0.01.

For data set [5] the following is noted: Human, 3 × 0.5 mg/kg per diem, oral; Andersson, et al. (1975); cited from earlier work.
Data set [6] deals with TNF-mediated NFκB activity in HeLa cells. Put plainly: NFκB luciferase reporter assay in TNF-stimulated HeLa cells. The format is cell-based. The following applies: pre-treatment 6 hours with 0-500 nM, 50 ng/mL TNF. On the procedure: FIG. 8. […] Values represent mean light units produced. Error bars represent SEM, and statistical significance was determined by unpaired T-test. Single and double asterisks represent P-values of 0.01 or 0.001, respectively. […] Samples were harvested at designated time points and were fractionated into nuclear and cytoplasmic lysates (Pierce). Lysates were quantified using BCA (Pierce), and were equally loaded according to total protein. Membranes were probed for levels of nuclear phospho-p65 (ReIA), phospho-ReIB, and histone (histone served as loading control and fractionation method control) and cytoplasmic degradation of IκBα (beta-tubulin served as loading control and fractionation method control).
HeLa cells were co-transfected with the reporter pNFκB-luc and control vector pTAL (Renilla) for 18 h prior to incubation with 0-500 nM cardiac glycoside for 6 h. Cells are stimulated with 50 ng/mL TNF. […] FIG. 8 B).
(In general: A reporter such as luciferase makes a cellular process visible.)

The mark [7] stands for this setting: daily i.p. from Mean Visual Score of 2, digitoxin 0.3 mg/kg, proscillaridin […], Mann-Whitney.

As for `CCCc1nn(C)c2c(=O)[nH]c(-c3cc(S(=O)(=O)N4CCN(C)CC4)ccc3OCC)nc12` [sildenafil], the “safety and efficacy of sublingual administration” value with erectile dysfunction is “safe and effective”.
`C[C@@H]1O[C@@H](O[C@@H]2C=C3CC[C@@H]4[C@H](CC[C@]5(C)[C@@H](c6ccc(=O)oc6)CC[C@]45O)[C@@]3(C)CC2)[C@H](O)[C@H](O)[C@H]1O` [Proscillaridin, proscillaridin A]: the “TNF-mediated activation of macrophage through TNFR” value in the data set with TNFR is “inhibits”. The “CD40L-mediated activation of macrophage through CD40” value on CD40 is given as “inhibits”. For the same compound, the “Serum cytokine levels (TNF, IL-6 and IL-1beta) versus vehicle” value with TNF, IL-6 and IL-1beta is listed as “similar”. Besides, in data set [1], the bioavailability by formulation entry was “higher bioavailability with injectable formulations”. In addition, the “immune cell infiltrate into the joints (hematoxylin and eosin)” value in data set [2] is listed as “decreased amounts of immune cell infiltrate”. In addition, in data set [3] (setting [7]), the “Mean Paw Thickness, treatment of established arthritis” value is recorded as “statistically significant reductions” and the “Mean Visual Score, treatment of established arthritis” value is “statistically significant reductions”. For the same compound, in data set [3] (daily i.p. from the day prior to induction, digitoxin 0.3 mg/kg, ouabain 0.03 mg/kg, proscillaridin […]), the “development of CIA (Mean Visual Arthritis Score, Mean Paw Thickness), prevention study” value was “prevented the development of CIA”. The “average clinical arthritis scores compared to vehicle, prevention study” value in data set [3] (first dose one day prior to boost, 0.3 mg/kg digitoxin, 0.03 mg/kg ouabain, […] proscillaridin, 0.35 mg/kg digoxin, […] bufalin, 15 mice per group) is “significantly reduced”. For the same compound, the “prevention and treatment of collagen-induced arthritis (CIA)” value in data set [3] (murine model for rheumatoid arthritis, summary statement) is “potently prevent and treat”. Further, in data set [4], the “anti-type II collagen IgG1 level relative to vehicle” value was “reduced levels” and the “anti-type II collagen IgM level relative to vehicle” value is listed as “reduced levels”. Further, the “Serum conc.” value in [5] is 0.75 ng/mL. Moreover, the “TNF-mediated NFκB activation (luciferase light units)” value in [6] was “reduced TNF-mediated NFκB activation in a dose-dependent fashion”.
